In data set [1] the target is T1, post-synaptic α-adrenoceptor (α1) (Rattus norvegicus, UniProt P43140).
T1 construct: from tissue; host or cells: rat isolated vas deferens, epididymal portion
T1 sequence (P43140 1-466): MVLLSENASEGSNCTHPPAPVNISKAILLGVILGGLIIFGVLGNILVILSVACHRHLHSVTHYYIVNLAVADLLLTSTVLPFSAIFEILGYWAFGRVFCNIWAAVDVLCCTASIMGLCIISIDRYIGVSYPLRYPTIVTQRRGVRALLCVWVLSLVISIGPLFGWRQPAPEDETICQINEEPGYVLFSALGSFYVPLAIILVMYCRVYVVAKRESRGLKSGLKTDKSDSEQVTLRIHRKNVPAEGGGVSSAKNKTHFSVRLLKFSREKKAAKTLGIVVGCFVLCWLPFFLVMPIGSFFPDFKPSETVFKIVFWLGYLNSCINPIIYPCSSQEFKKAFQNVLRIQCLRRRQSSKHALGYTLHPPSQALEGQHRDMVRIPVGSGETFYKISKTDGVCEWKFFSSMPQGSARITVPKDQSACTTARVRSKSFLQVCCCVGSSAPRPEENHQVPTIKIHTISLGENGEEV
Put plainly: Post-synaptic α-adrenoceptor blockade (epididymal portion of rat vas deferens, contractile effects of phenylephrine). Conditions: phenylephrine agonist, number of determinations in parentheses; for Kb: for 1-ethyl b174 = lot No. 1, b175 = lot No. 2, read-out: pA2 (α1) (converted). The data set is classed as cell-based. The source says: The contralateral portions served as control tissues.
J. Pharmacol.; 14: 48-58 (1959).

Data set [2] in a line: LD50, intraperitoneal injection in mice. As to conditions: mouse, in vivo, ip, per body weight.
The test system of data set [3] is spontaneously hypertensive rats. Put plainly: Antihypertensive activity in spontaneously hypertensive rats. The format is in vivo, rat. As to conditions: 50 mg per kg orally on two consecutive mornings; hydrochloride salt; measured during four hours after second dose. Here is the method: Spontaneously hypertensive rats were divided into groups of four animals each with approximately equal mean systolic blood pressures. One such group serves as a control against another group which is given the compound to be tested. On two consecutive mornings, the test group was dosed orally with 50 mg per kg of 1-ethyl-2-(1,4-benzodioxane-2-ylmethyl)imidazole as a hydrochloride salt which was suspended in a vehicle of water and tween. The control group received vehicle only. Immediately after dosing on the second day, the rats were put in restrainers and placed in a heated chamber at 30° C. for four hours.
During this time, systolic blood pressures were determined at four consecutive 20 second intervals using photoelectric transducers. The mean systolic blood pressure of each rat (as an average of these four measurements) was recorded. The results are given as percentage lowering of the mean systolic blood pressure in the experimental as compared with the control group.

The next data set has as its system blood platelets. Put plainly: Platelet aggregation inhibition. Conditions: hydrochloride salt; for inhibition at 500 µM: at 5 × 10^-4 M, read-out: inhibition From Maximum Height (ΔT). The format is cell-based. Here is the method: Blood platelets are collected in the standard manner, and incubated in an Aggregation Module Incubator-Cuvette in the presence of either the inhibitor to be tested, or without said inhibitor as a control. The aggregation of the platelets is observed after the addition of an inducer, and the samples are evaluated for the presence of a lag period and the slope of the aggregation curve, as well as the maximum height of the aggregation curve in comparison to the control.

Structures are written as SMILES. Read-outs that look alike come from different tables or passages of the source.

Consider `CCn1ccnc1CC1COc2ccccc2O1` (stereo not drawn) [1-ethyl-2-(1,4-benzodioxan-2-ylmethyl)imidazole], for which, in data set [1] (for 1-ethyl b174 = lot No. 1, b175 = lot No. 2), the “pA2 (α1)” value is reported as 4.00. The Kb in data set [1] was 100 µM. This compound also returned an LD50 in data set [2] of 200 mg/kg.

On to `CCn1ccnc1CC1COc2ccccc2O1` (stereo not drawn) [1-ethyl-2-(1,4-benzodioxane-2-ylmethyl)imidazole], for which the “lowering of the mean systolic blood pressure compared with control group” value in data set [3] is reported as 29%. The inhibition at 1000 µM in the data set with blood platelets (inducer ADP (5 × 10^-6 M), at 10^-3 M, read-out: inhibition From Slope (Rate)) worked out at 20%. The IC50 came out at 1000 µM with blood platelets (inducer ADP (5 × 10^-6 M), read-out: IC50 From Maximum Height (ΔT)); 190 µM in the data set with blood platelets (inducer arachidonic acid (2.5 × 10^-4 M), read-out: IC50 From Maximum Height (ΔT)); 310 µM in the data set with blood platelets (inducer arachidonic acid (2.5 × 10^-4 M), read-out: IC50 From Slope (Rate)); 450 µM in the data set on blood platelets (inducer collagen (30&), read-out: IC50 From Slope (Rate)). Further, the inhibition at 500 µM was 27% in the data set on blood platelets (inducer collagen (30&)) and 5% in the data set with blood platelets (inducer epinephrine (5 × 10^-6 M)). Moreover, the inhibition at 50 µM in the data set on blood platelets (inducer epinephrine (5 × 10^-6 M), 5 × 10^-5 M, read-out: inhibition From Slope (Rate)) is 99%.

For `Cn1ccnc1CC1COc2ccccc2O1` (stereo not drawn) [1-methyl-2-(1,4-benzodioxan-2-ylmethyl)imidazole], the Kb in data set [1] was 50.1 µM.

As for `CCCn1ccnc1CC1COc2ccccc2O1` (stereo not drawn) [1-propyl-2-(1,4-benzodioxan-2-ylmethyl)imidazole], the Kb in data set [1] was 63.1 µM. Further, in data set [2], the LD50 turned out to be 200 mg/kg.

For the compound `c1ccc2c(c1)OCC(Cc1ncc[nH]1)O2` (stereo not drawn) [2-(1,4-benzodioxan-2-ylmethyl)imidazole], the Kb in data set [1] is 0.794 µM. For the same compound, the LD50 in data set [2] was determined as 70 mg/kg.

For `c1ccc2c(c1)OCC(CCc1ncc[nH]1)O2` (stereo not drawn) [2-(2-(1,4-benzodioxan-2-yl)ethyl)imidazole], the Kb in data set [1] is 0.617 µM.

The values are drawn from patent US4497818A, “2-(1,4-Benzodioxan-2-ylalkyl)imidazoles useful as antihypertensives and platelet aggregation inhibitors” (Syntex (U.S.A.) Inc., priority 1981, dated 1985).
